Assay results taken from patent US9211310B2, “Use of a Chinese medicine composition in preparing medicaments for treating secondary prevention of myocardial infarction” (TASLY PHARMACEUTICAL GROUP CO., LTD, priority 2010, dated 2015).

System: patients after acute myocardial infarction
Experiment: Life quality, Seattle Angina Questionnaire (SAQ), same clinical trial
Format: in vivo, human
Conditions: Follow-up
Description: 3508 patients who were in accordance with the diagnostic standards of AMI for 28 days to 2 years and differentiated as Qi deficiency and blood stagnation syndrome by TCM were studied. 0.5 g Chinese medicine composition prepared by the method of EXAMPLE 1 (Coded as QSYQ) was administrated half an hour after meal, 3 times per day.
There were 19 questions in the Seattle angina questionnaire (SAQ), including 5 parts: physical limitation (PL), anginal stability (AS), anginal frequency (AF), treatment satisfaction (TS) and disease perception (DP). After being given necessary explanation by doctors, the questions were answered independently by patients.
They included the overall survival time, angina pectoris score, TCM symptom score and life quality score, where angina pectoris score, TCM symptom score and life quality score were evaluated at randomization, in 1st, 3rd, 6th, 9th, 12th month after treatment and 18th month after follow-up.
All evaluation results of SAQ were described during the period of observation, and Wilcoxon rank sum test was used for inter-group comparison.
The evaluation results in the SAQ were depicted in different observations, and inter-group comparison was tested by Wilcoxon Rank-sum test.

## CC(=O)Oc1ccccc1C(=O)O [Control group, aspirine]
FAS
  SAQ Question 1-3: Slightly limited, number of patients: 190
  SAQ Question 1-3: Slightly limited, percent of patients: (13.17%)
  SAQ Question 1-4: Mildly limited, number of patients: 177
  SAQ Question 1-4: Mildly limited, percent of patients: (12.28%)
  SAQ Question 1-4: Moderately limited, number of patients: 38
  SAQ Question 1-4: Moderately limited, percent of patients: (2.64%)
  SAQ Question 1-4: Not limited, number of patients: 775
  SAQ Question 1-4: Not limited, percent of patients: (53.78%)
  SAQ Question 1-4: Other reasons, number of patients: 10
  SAQ Question 1-4: Other reasons, percent of patients: (0.69%)
  SAQ Question 1-4: Severely limited, number of patients: 5
  SAQ Question 1-4: Severely limited, percent of patients: (0.35%)
  SAQ Question 1-4: Slightly limited, number of patients: 436
  SAQ Question 1-4: Slightly limited, percent of patients: (30.26%)
  SAQ Question 1-5: Mildly limited, number of patients: 189
  SAQ Question 1-5: Mildly limited, percent of patients: (13.12%)
  SAQ Question 1-5: Moderately limited, number of patients: 57
  SAQ Question 1-5: Moderately limited, percent of patients: (3.96%)
  SAQ Question 1-5: Not limited, number of patients: 783
  SAQ Question 1-5: Not limited, percent of patients: (54.34%)
  SAQ Question 1-5: Other reasons, number of patients: 8
  SAQ Question 1-5: Other reasons, percent of patients: (0.56%)
  SAQ Question 1-5: Severely limited, number of patients: 9
  SAQ Question 1-5: Severely limited, percent of patients: (0.62%)
  SAQ Question 1-5: Slightly limited, number of patients: 395
  SAQ Question 1-5: Slightly limited, percent of patients: (27.41%)
  SAQ Question 1-9: Mildly limited, % of cases: (20.40%)
  SAQ Question 1-9: Mildly limited, cases: 285
  SAQ Question 1-9: Moderately limited, % of cases: (21.19%)
  SAQ Question 1-9: Moderately limited, cases: 296
  SAQ Question 1-9: Not limited, % of cases: (6.08%)
  SAQ Question 1-9: Not limited, cases: 85
  SAQ Question 1-9: Other reasons, % of cases: (4.65%)
  SAQ Question 1-9: Other reasons, cases: 65
  SAQ Question 1-9: Severely-limited, % of cases: (27.13%)
  SAQ Question 1-9: Severely-limited, cases: 379
  SAQ Question 1-9: Slightly limited, % of cases: (20.54%)
  SAQ Question 1-9: Slightly limited, cases: 287
PP
  SAQ 2nd question: Clearly increased, % of cases: (0.21%)
  SAQ 2nd question: Clearly increased, cases: 3
  SAQ 2nd question: Clearly reduced, % of cases: (27.66%)
  SAQ 2nd question: Clearly reduced, cases: 390
  SAQ 2nd question: Same, % of cases: (39.15%)
  SAQ 2nd question: Same, cases: 552
  SAQ 2nd question: Slightly increased, % of cases: (7.38%)
  SAQ 2nd question: Slightly increased, cases: 104
  SAQ 2nd question: Slightly reduced, % of cases: (25.60%)
  SAQ 2nd question: Slightly reduced, cases: 361
  SAQ 3rd question: 1-2 times per week, % of cases: (25.60%)
  SAQ 3rd question: 1-2 times per week, cases: 361
  SAQ 3rd question: 1-3 times per day, % of cases: (7.38%)
  SAQ 3rd question: 1-3 times per day, cases: 104
  SAQ 3rd question: <1 time per week, % of cases: (27.66%)
  SAQ 3rd question: <1 time per week, cases: 390
  SAQ 3rd question: No onset, % of cases: (0.00%)
  SAQ 3rd question: No onset, cases: 0
  SAQ 3rd question: ≧3 times per week, % of cases: (39.15%)
  SAQ 3rd question: ≧3 times per week, cases: 552
  SAQ 3rd question: ≧4 times per day, % of cases: (0.21%)
  SAQ 3rd question: ≧4 times per day, cases: 3
  SAQ Question 1-3: Mildly limited, number of patients: 30
  SAQ Question 1-3: Mildly limited, percent of patients: (2.13%)
  SAQ Question 1-3: Moderately limited, number of patients: 6
  SAQ Question 1-3: Moderately limited, percent of patients: (0.43%)
  SAQ Question 1-3: Not limited, number of patients: 1179
  SAQ Question 1-3: Not limited, percent of patients: (83.74%)
  SAQ Question 1-3: Other reasons, number of patients: 9
  SAQ Question 1-3: Other reasons, percent of patients: (0.64%)
  SAQ Question 1-3: Severely limited, number of patients: 2
  SAQ Question 1-3: Severely limited, percent of patients: (0.14%)
  SAQ Question 1-3: Slightly limited, number of patients: 182
  SAQ Question 1-3: Slightly limited, percent of patients: (12.93%)
  SAQ Question 1-4: Mildly limited, number of patients: 172
  SAQ Question 1-4: Mildly limited, percent of patients: (12.23%)
  SAQ Question 1-4: Moderately limited, number of patients: 37
  SAQ Question 1-4: Moderately limited, percent of patients: (2.63%)
  SAQ Question 1-4: Not limited, number of patients: 754
